Publication PMC7419507, “In vitro Cas9-assisted editing of modular polyketide synthase genes to produce desired natural product derivatives” (Nature Communications, 2020)
Where “and” joins values, the source holds several entries; their conditions need not be identical. Identical values can stand only once.

Experiments:
[1] = tested on: malignant pleural mesothelioma MESO-1 cells; test: Cytotoxicity assay (CellTiter-Glo, 72 h), MESO-1; type: cell-based; details: raw replicate data
Procedure, shortened: (§1)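 Cells were seeded at 1000 cells/well and allowed 4 h at 37 °C, 5% CO2 before 2-fold compound dilutions in DMSO were added (0.5% final DMSO). After 72 h exposure, viability was read by CellTiter-Glo luminescence.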

[2] = Cytotoxicity assay (CellTiter-Glo, 72 h), MESO-1; type: cell-based; details: human, MESO-1 malignant pleural mesothelioma cells, raw replicate data, read-out: MESO1 viability (%)
Procedure, shortened: as §1

[3] = tested on: Jurkat, SKOV-3 and MESO-1 cells; test: Cytotoxicity assay, statements for all tested cell lines together; type: cell-based; details: Jurkat, SKOV-3 and MESO-1 cells, 72 h
Procedure, shortened: as §1

[4] = tested on: human ovarian adenocarcinoma SKOV-3 cells; test: Cytotoxicity assay (CellTiter-Glo, 72 h), SKOV-3; type: cell-based; details: raw replicate data
Procedure, shortened: as §1

[5] = Cytotoxicity assay (CellTiter-Glo, 72 h), SKOV-3; type: cell-based, human; details: human, raw replicate data, read-out: SKOV3 viability (%)
Procedure, shortened: as §1

T lymphoma Jurkat cells = test: Cytotoxicity assay (CellTiter-Glo, 72 h), Jurkat; type: cell-based; details: raw data (replicates)
Procedure, shortened: as §1

[6] = Cytotoxicity assay (CellTiter-Glo, 72 h), Jurkat; type: cell-based; details: human, Jurkat cells (T lymphoma), raw data (replicates)
Procedure, shortened: as §1

COC1CC2CCC(C)C(O)(O2)C(=O)C(=O)N2CCCCC2C(=O)OC(C(C)CC2CCC(O)C(OC)C2)CC(=O)C(C)C=C(C)C(O)CC(=O)C(C)C=C(C)C=CC=CC=C1C (stereo not shown) [Compound 14]
MESO1 viability (%) ([1]; conc 9.53674e-5 uM): 99.4% and 103.8%
MESO1 viability (%) ([1]; conc 0.000190735 uM): 95.6% and 99.1%
MESO1 viability (%) ([1]; conc 0.00038147 uM): 104.7% and 94.5%
MESO1 viability (%) ([1]; conc 0.000762939 uM): 96.5%
MESO1 viability (%) ([1]; conc 0.00152588 uM): 101.1% and 98.7%
MESO1 viability (%) ([1]; conc 0.00305176 uM): 99.6% and 99.1%
MESO1 viability (%) ([1]; conc 0.00610352 uM): 100.1%
MESO1 viability (%) ([1]; conc 0.012207 uM): 95.8% and 96.3%
MESO1 viability (%) ([1]; conc 0.0244141 uM): 100.3% and 106.1%
MESO1 viability (%) ([1]; conc 0.0488281 uM): 100.9% and 99.1%
MESO1 viability (%) ([1]; conc 0.0976562 uM): 96.4% and 97.3%
MESO1 viability (%) ([1]; conc 0.195312 uM): 87.1% and 89.8%
MESO1 viability (%) ([1]; conc 0.390625 uM): 94.1% and 98.7%
MESO1 viability (%) ([1]; conc 0.78125 uM): 79.4% and 79.1%
MESO1 viability (%) ([1]; conc 1.5625 uM): 71.5% and 77.1%
MESO1 viability (%) ([1]; conc 3.125 uM): 73.4% and 72.1%
MESO1 viability (%) ([1]; conc 6.25 uM): 74.3% and 73.5%
MESO1 viability (%) ([1]; conc 12.5 uM): 68.9% and 72.8%
MESO1 viability (%) ([1]; conc 25 uM): 69.4% and 68.8%
MESO1 viability (%) ([1]; conc 50 uM): 60.5% and 62.4%
viability at 72 h, 9.53674e-05 uM ([2]; conc 9.53674e-5 uM): 96.6%
viability at 72 h, 0.000190735 uM ([2]; conc 0.000190735 uM): 97.8%
viability at 72 h, 0.00038147 uM ([2]; conc 0.00038147 uM): 94.8%
viability at 72 h, 0.000762939 uM ([2]; conc 0.000762939 uM): 104%
viability at 72 h, 0.00152588 uM ([2]; conc 0.00152588 uM): 102%
viability at 72 h, 0.00305176 uM ([2]; conc 0.00305176 uM): 94.6%
viability at 72 h, 0.00610352 uM ([2]; conc 0.00610352 uM): 95.7%
viability at 72 h, 0.012207 uM ([2]; conc 0.012207 uM): 94.6%
viability at 72 h, 0.0244141 uM ([2]; conc 0.0244141 uM): 94.7%
viability at 72 h, 0.0488281 uM ([2]; conc 0.0488281 uM): 96.1%
viability at 72 h, 0.0976562 uM ([2]; conc 0.0976562 uM): 102%
viability at 72 h, 0.195312 uM ([2]; conc 0.195312 uM): 90.3%
viability at 72 h, 0.390625 uM ([2]; conc 0.390625 uM): 93.7%
viability at 72 h, 0.78125 uM ([2]; conc 0.78125 uM): 79%
viability at 72 h, 1.5625 uM ([2]; conc 1.5625 uM): 79.3%
viability at 72 h, 3.125 uM ([2]; conc 3.125 uM): 75%
viability at 72 h, 6.25 uM ([2]; conc 6.25 uM): 77.6%
viability at 72 h, 12.5 uM ([2]; conc 12.5 uM): 72.5%
viability at 72 h, 25 uM ([2]; conc 25 uM): 74.6%
viability at 72 h, 50 uM ([2]; conc 50 uM): 59.3%
Effect on cell viability, in words [3]: slightly suppressed the cell viabilities
SKOV3 viability (%) ([4]; conc 9.53674e-5 uM): 98.4% and 95.5%
SKOV3 viability (%) ([4]; conc 0.000190735 uM): 101.1% and 93.2%
SKOV3 viability (%) ([4]; conc 0.00038147 uM): 101.8% and 98.2%
SKOV3 viability (%) ([4]; conc 0.000762939 uM): 98.4% and 94.2%
SKOV3 viability (%) ([4]; conc 0.00152588 uM): 99.8% and 104.2%
SKOV3 viability (%) ([4]; conc 0.00305176 uM): 98.8% and 92.1%
SKOV3 viability (%) ([4]; conc 0.00610352 uM): 101.4% and 103.8%
SKOV3 viability (%) ([4]; conc 0.012207 uM): 94.0% and 97.4%
SKOV3 viability (%) ([4]; conc 0.0244141 uM): 103.2% and 105.4%
SKOV3 viability (%) ([4]; conc 0.0488281 uM): 98.2% and 100.0%
SKOV3 viability (%) ([4]; conc 0.0976562 uM): 101.8% and 110.3%
SKOV3 viability (%) ([4]; conc 0.195312 uM): 98.6% and 95.1%
SKOV3 viability (%) ([4]; conc 0.390625 uM): 104.4%
SKOV3 viability (%) ([4]; conc 0.78125 uM): 86.0% and 88.0%
SKOV3 viability (%) ([4]; conc 1.5625 uM): 92.8% and 89.9%
SKOV3 viability (%) ([4]; conc 3.125 uM): 80.6% and 76.1%
SKOV3 viability (%) ([4]; conc 6.25 uM): 79.5%
SKOV3 viability (%) ([4]; conc 12.5 uM): 67.2% and 69.9%
SKOV3 viability (%) ([4]; conc 25 uM): 77.7% and 72.7%
SKOV3 viability (%) ([4]; conc 50 uM): 51.8% and 56.0%
viability at 72 h, 9.53674e-05 uM ([5]; SKOV-3 cells (ovarian adenocarcinoma), conc 9.53674e-5 uM): 105%
viability at 72 h, 0.000190735 uM ([5]; SKOV-3 cells (ovarian adenocarcinoma), conc 0.000190735 uM): 103%
viability at 72 h, 0.00038147 uM ([5]; SKOV-3 cells (ovarian adenocarcinoma), conc 0.00038147 uM): 104%
viability at 72 h, 0.000762939 uM ([5]; SKOV-3 cells (ovarian adenocarcinoma), conc 0.000762939 uM): 102%
viability at 72 h, 0.00152588 uM ([5]; SKOV-3 cells (ovarian adenocarcinoma), conc 0.00152588 uM): 97.9%
viability at 72 h, 0.00305176 uM ([5]; SKOV-3 cells (ovarian adenocarcinoma), conc 0.00305176 uM): 98%
viability at 72 h, 0.00610352 uM ([5]; SKOV-3 cells (ovarian adenocarcinoma), conc 0.00610352 uM): 103%
viability at 72 h, 0.012207 uM ([5]; SKOV-3 cells (ovarian adenocarcinoma), conc 0.012207 uM): 97.1%
viability at 72 h, 0.0244141 uM ([5]; SKOV-3 cells (ovarian adenocarcinoma), conc 0.0244141 uM): 106%
viability at 72 h, 0.0488281 uM ([5]; SKOV-3 cells (ovarian adenocarcinoma), conc 0.0488281 uM): 100%
viability at 72 h, 0.0976562 uM ([5]; SKOV-3 cells (ovarian adenocarcinoma), conc 0.0976562 uM): 100%
viability at 72 h, 0.195312 uM ([5]; SKOV-3 cells (ovarian adenocarcinoma), conc 0.195312 uM): 97.3%
viability at 72 h, 0.390625 uM ([5]; SKOV-3 cells (ovarian adenocarcinoma), conc 0.390625 uM): 99.4%
viability at 72 h, 12.5 uM ([5]; SKOV-3 cells (ovarian adenocarcinoma), conc 12.5 uM): 81.9%
viability at 72 h, 25 uM ([5]; SKOV-3 cells (ovarian adenocarcinoma), conc 25 uM): 73.7%
viability at 72 h, 50 uM ([5]; SKOV-3 cells (ovarian adenocarcinoma), conc 50 uM): 60.7%
viability at 72 h, 0.78125 uM ([5]; SKOV-3 ovarian adenocarcinoma cells, conc 0.78125 uM): 93.1%
viability at 72 h, 1.5625 uM ([5]; SKOV-3 ovarian adenocarcinoma cells, conc 1.5625 uM): 91.2%
viability at 72 h, 3.125 uM ([5]; SKOV-3 ovarian adenocarcinoma cells, conc 3.125 uM): 84.5%
viability at 72 h, 6.25 uM ([5]; SKOV-3 ovarian adenocarcinoma cells, conc 6.25 uM): 78.2%
Jurkat viability (%) (T lymphoma Jurkat cells; conc 9.53674e-5 uM): 99.0% and 99.6%
Jurkat viability (%) (T lymphoma Jurkat cells; conc 0.000190735 uM): 96.4% and 106.9%
Jurkat viability (%) (T lymphoma Jurkat cells; conc 0.00038147 uM): 106.3% and 110.1%
Jurkat viability (%) (T lymphoma Jurkat cells; conc 0.000762939 uM): 94.3% and 106.0%
Jurkat viability (%) (T lymphoma Jurkat cells; conc 0.00152588 uM): 101.0% and 106.0%
Jurkat viability (%) (T lymphoma Jurkat cells; conc 0.00305176 uM): 97.8%
Jurkat viability (%) (T lymphoma Jurkat cells; conc 0.00610352 uM): 106.2% and 106.5%
Jurkat viability (%) (T lymphoma Jurkat cells; conc 0.012207 uM): 99.3%
Jurkat viability (%) (T lymphoma Jurkat cells; conc 0.0244141 uM): 108.2% and 105.8%
Jurkat viability (%) (T lymphoma Jurkat cells; conc 0.0488281 uM): 103.9% and 107.5%
Jurkat viability (%) (T lymphoma Jurkat cells; conc 0.0976562 uM): 96.8%
Jurkat viability (%) (T lymphoma Jurkat cells; conc 0.195312 uM): 93.3% and 90.8%
Jurkat viability (%) (T lymphoma Jurkat cells; conc 0.390625 uM): 89.0% and 89.4%
Jurkat viability (%) (T lymphoma Jurkat cells; conc 0.78125 uM): 77.6% and 70.2%
Jurkat viability (%) (T lymphoma Jurkat cells; conc 1.5625 uM): 62.3% and 57.2%
Jurkat viability (%) (T lymphoma Jurkat cells; conc 3.125 uM): 49.0% and 51.4%
Jurkat viability (%) (T lymphoma Jurkat cells; conc 6.25 uM): 45.2% and 40.6%
Jurkat viability (%) (T lymphoma Jurkat cells; conc 12.5 uM): 39.4% and 37.1%
Jurkat viability (%) (T lymphoma Jurkat cells; conc 25 uM): 31.9% and 26.3%
Jurkat viability (%) (T lymphoma Jurkat cells; conc 50 uM): 1.0% and 0.558%
viability at 72 h, 9.53674e-05 uM ([6]; conc 9.53674e-5 uM): 100%
viability at 72 h, 0.000190735 uM ([6]; conc 0.000190735 uM): 99.4%
viability at 72 h, 0.00038147 uM ([6]; conc 0.00038147 uM): 100%
viability at 72 h, 0.000762939 uM ([6]; conc 0.000762939 uM): 99.9%
viability at 72 h, 0.00152588 uM ([6]; conc 0.00152588 uM): 101%
viability at 72 h, 0.00305176 uM ([6]; conc 0.00305176 uM): 103%
viability at 72 h, 0.00610352 uM ([6]; conc 0.00610352 uM): 98.3%
viability at 72 h, 0.012207 uM ([6]; conc 0.012207 uM): 100%
viability at 72 h, 0.0244141 uM ([6]; conc 0.0244141 uM): 102%
viability at 72 h, 0.0488281 uM ([6]; conc 0.0488281 uM): 101%
viability at 72 h, 0.0976562 uM ([6]; conc 0.0976562 uM): 97.1%
viability at 72 h, 0.195312 uM ([6]; conc 0.195312 uM): 95.7%
viability at 72 h, 0.390625 uM ([6]; conc 0.390625 uM): 94%
viability at 72 h, 0.78125 uM ([6]; conc 0.78125 uM): 78.6%
viability at 72 h, 1.5625 uM ([6]; conc 1.5625 uM): 66.2%
viability at 72 h, 3.125 uM ([6]; conc 3.125 uM): 45.1%
viability at 72 h, 6.25 uM ([6]; conc 6.25 uM): 45.6%
viability at 72 h, 12.5 uM ([6]; conc 12.5 uM): 38.2%
viability at 72 h, 25 uM ([6]; conc 25 uM): 31.3%
viability at 72 h, 50 uM ([6]; conc 50 uM): 0.9%
